Experimental data published in ChEMBL document CHEMBL5120865, “Exploration of 6-methyl-7-(Hetero)Aryl-7-Deazapurine ribonucleosides as antileishmanial agents” (Eur J Med Chem, 2022).
pEC50: −log10 of the molar value.

Tests used:
Leishmania infantum = assay: Antileishmanial activity against intracellular Leishmania infantum MHOM/MA(BE)/67 ITMAP263 amastigotes infected in Swiss mouse peritoneal macrophage assessed as inhibition of parasite growth measured after 5 days by geimsa staining based microscopic analysis; assay type: functional, organism-based; settings: MHOM/MA(BE)/67 ITMAP263, Peritoneal macrophage, 120 h
[1] = Cytotoxicity against Swiss mouse peritoneal macrophages assessed as reduction in cell viability measured after 5 days by microscopic analysis; assay type: toxicity, cell-based, Peritoneal macrophage; settings: time 5 day
[2] = Selectivity index, ratio of CC50 for Cytotoxicity against Swiss mouse peritoneal macrophages to EC50 for intracellular Leishmania infantum MHOM/MA(BE)/67 ITMAP263 amastigotes infected in Swiss mouse peritoneal macrophages; assay type: toxicity, cell-based; settings: read-out: Ratio CC50/EC50
[3] = Cytotoxicity against human MRC5 cells assessed as reduction in cell viability incubated for 3 days by resazurin dye based fluorescence analysis; assay type: toxicity; settings: time 3 day

Compound | pEC50 (Leishmania infantum) | CC50 at 120 h [1] [µM] | selectivity ratio [2] | CC50 at 72 h [3] [µM]
Cc1ncnc2c1c(-c1ccc(C(F)(F)F)cc1)cn2[C@@H]1O[C@H](CO)[C@@H](O)[C@H]1O | 4.95 | > 64 | > 5.6 | –
Cc1ncnc2c1c(-c1ccccc1F)cn2[C@@H]1O[C@H](CO)[C@@H](O)[C@H]1O | < 4.19 | > 64 | – | > 64
Cc1ncnc2c1c(-c1ccc(N)cc1)cn2[C@@H]1O[C@H](CO)[C@@H](O)[C@H]1O | 5.17 | > 64 | > 9.5 | –
Cc1ncnc2c1c(-c1cc3ccccc3cn1)cn2[C@@H]1O[C@H](CO)[C@@H](O)[C@H]1O | < 4.19 | > 64 | – | > 64
Cc1ncnc2c1c(-c1ccccc1N)cn2[C@@H]1O[C@H](CO)[C@@H](O)[C@H]1O | < 4.19 | > 64 | – | > 64
Cc1ncnc2c1c(-c1ccoc1)cn2[C@@H]1O[C@H](CO)[C@@H](O)[C@H]1O | < 4.19 | > 64 | – | > 64
Cc1ncnc2c1c(-c1cccc3ccn(C)c13)cn2[C@@H]1O[C@H](CO)[C@@H](O)[C@H]1O | < 4.19 | > 64 | – | > 64
COc1ccnc(-c2cn([C@@H]3O[C@H](CO)[C@@H](O)[C@H]3O)c3ncnc(C)c23)c1 | < 4.19 | > 64 | – | > 64
Cc1ncnc2c1c(-c1ccc(Cl)cc1)cn2[C@@H]1O[C@H](CO)[C@@H](O)[C@H]1O | 4.79 | > 64 | > 3.5 | –
Cc1ncnc2c1c(-c1ccc(S(C)(=O)=O)cc1)cn2[C@@H]1O[C@H](CO)[C@@H](O)[C@H]1O | 5.17 | > 64 | > 9.5 | –
Cc1ncnc2c1c(C1=CCOCC1)cn2[C@@H]1O[C@H](CO)[C@@H](O)[C@H]1O | 4.61 | > 64 | – | –
Cc1ncnc2c1c(CCc1ccccn1)cn2[C@@H]1O[C@H](CO)[C@@H](O)[C@H]1O | < 4.19 | > 64 | – | > 64
Cc1ncnc2c1c(-c1ccncc1)cn2[C@@H]1O[C@H](CO)[C@@H](O)[C@H]1O | < 4.19 | > 64 | – | > 64
CSc1ccccc1-c1cn([C@@H]2O[C@H](CO)[C@@H](O)[C@H]2O)c2ncnc(C)c12 | < 4.19 | > 64 | – | > 64
Cc1ncnc2c1c(-c1ccc3ccccc3n1)cn2[C@@H]1O[C@H](CO)[C@@H](O)[C@H]1O | < 4.19 | > 64 | – | > 64
Cc1ncnc2c1c(-c1cccs1)cn2[C@@H]1O[C@H](CO)[C@@H](O)[C@H]1O | 4.90 | 32 | 2.5 | –
Cc1ncnc2c1c(-c1ccc(Cl)c(F)c1)cn2[C@@H]1O[C@H](CO)[C@@H](O)[C@H]1O | 5.10 | > 64 | > 8 | –
COc1cc(-c2cn([C@@H]3O[C@H](CO)[C@@H](O)[C@H]3O)c3ncnc(C)c23)ccc1Cl | 5.06 | > 64 | > 7.3 | –
Cc1ncnc2c1c(Sc1ccccc1)cn2[C@@H]1O[C@H](CO)[C@@H](O)[C@H]1O | < 4.19 | > 64 | – | > 64
Cc1ncnc2c1c(-c1cccc(F)n1)cn2[C@@H]1O[C@H](CO)[C@@H](O)[C@H]1O | < 4.19 | > 64 | – | > 64
Cc1ncnc2c1c(-c1ccc(Cl)nc1)cn2[C@@H]1O[C@H](CO)[C@@H](O)[C@H]1O | < 4.19 | > 64 | – | > 64
Cc1ncnc2c1c(-c1ccccc1[N+](=O)[O-])cn2[C@@H]1O[C@H](CO)[C@@H](O)[C@H]1O | < 4.19 | > 64 | – | > 64
Cc1ncnc2c1c(-c1ccsc1)cn2[C@@H]1O[C@H](CO)[C@@H](O)[C@H]1O | < 4.19 | > 64 | – | > 64
